Test results published in patent US20150174108A1, “METHOD OF WEIGHT REDUCTION” (priority 2012, published 2015).
Entries after “also recorded” stand apart in the source; their conditions may differ.

What was measured:
Assay type in all cases: in vivo, human
[1] = 24 week randomised placebo-controlled double-blind clinical trial: body weight; details: for ΔBW Week 24, Mean ± SD / ΔBW Week 24, Median (range): change from baseline (Day 0) to Week 24; for body weight change over the study: metformin-treated patients who received placebo; for BW Week 24, Mean ± SD / BW Week 24, Median (range): type 2 diabetes patients
Method: (§1) The safety and efficacy of methazolamide (40 mg administered twice daily) as a potential treatment for type 2 diabetes were evaluated in a 24 week, randomised, placebo-controlled double-blind clinical trial. The primary efficacy endpoint for the clinical trial was a reduction in HbA1c (ΔHbA1c) from baseline with methazolamide, relative to placebo, after 24 weeks of treatment. Secondary efficacy endpoints included reduction in body weight and improvements in cardiovascular measures such as blood pressure. The primary safety measurement was the effect of methazolamide, compared to placebo, on venous blood gas parameters; a measure of acidosis.
(§2) The clinical trial initially enrolled type 2 diabetes patients who were not treated with any anti-diabetic agent prior to entry into the trial (NAIVE) The trial was expanded to include participants who had been treated with metformin for at least 3 months and were on a stable metformin dose for at least 8 weeks prior to entering the trial (MET). The metformin dose was not altered throughout the trial.
(§3) Participants randomized into the clinical trial were administered either daily doses of methazolamide (40 mg b.i.d.) or placebo for 24 weeks. Methazolamide was taken as 1×30 mg capsule and 1×10 mg capsule per dose at breakfast and dinner. Placebo (microcrystalline cellulose) was administered in identical presentation. After an initial randomization visit to the clinic (Day 0), participants returned to the clinic at weeks 1, 2, 4, 8, 12, 18 and 24 for physical examinations, laboratory analyses, body composition measures, evaluation of glycemic parameters (fasting blood glucose, fasting insulin, HbA1c) and measurement of venous blood gas analysis.
(§4) Mean changes in body weight over time are depicted in FIG. 1.
Thus an unexpected and selective effect of methazolamide on the metformin-treated patients was observed.

[2] = 24 week randomised placebo-controlled double-blind clinical trial: body mass index; details: for ΔBMI Week 24, Mean ± SD / ΔBMI Week 24, Median (range): change from baseline (Day 0) to Week 24; for BMI Week 24, Mean ± SD / BMI Week 24, Median (range): type 2 diabetes patients
Method: as §1, §2, §3, §4

[3] = 24 week randomised placebo-controlled double-blind clinical trial: HbA1c; details: for ΔHbA1c Week 24, Mean ± SD / ΔHbA1c Week 24, Median (range): change from baseline (Day 0) to Week 24; for HbA1c Week 24, Mean ± SD / HbA1c Week 24, Median (range): type 2 diabetes patients, methazolamide 40 mg b.i.d.
Method: as §1, §2, §3, §4

[4] = difference to the matching placebo group, Week 24

Structure (SMILES)	ΔBW Week 24, Mean ± SD [1]	ΔBW Week 24, Median (range) [1]	body weight change over the study ([1]; 24 weeks)	body weight change over the study ([1]; 24 weeks, listed as metformin and placebo)	BW Week 24, Mean ± SD [1]	BW Week 24, Median (range) [1]	ΔBMI Week 24, Mean ± SD [2]	ΔBMI Week 24, Median (range) [2]	BMI Week 24, Mean ± SD [2]	BMI Week 24, Median (range) [2]	ΔHbA1c Week 24, Mean ± SD [3]	ΔHbA1c Week 24, Median (range) [3]	HbA1c Week 24, Mean ± SD [3]	HbA1c Week 24, Median (range) [3]	effect on body weight versus placebo ([1]; Naïve patients not using metformin, 24 weeks)	ΔBW Week 24, MTZ − Placebo [1, 4]	average body weight lost over the 24 week period ([1]; metformin-treated patients further treated with methazolamide)	body weight lost as share of starting body weight ([1]; metformin-treated patients further treated with methazolamide, 24 weeks)	ΔBMI Week 24, MTZ − Placebo [2, 4]	ΔHbA1c Week 24, MTZ − Placebo [3, 4]
CN(C)C(=N)NC(=N)N [Placebo + Met, metformin]	-0.3 ± 1.7 kg	−0.5 (−2.8, +3.9) kg	largely stable body weight	did not significantly change	90.3 ± 15.9 kg	87.6 (68.5, 133.6) kg	−0.06 ± 0.58 kg/m^2	−0.2 (−0.8, +1.5) kg/m^2	29.7 ± 4.7 kg/m^2	29.1 (23.6-39.5) kg/m^2	−0.04 ± 0.71%	−0.2 (−0.9, +1.4) %	7.50 ± 0.84%	7.3 (6.6, 9.8) %	–	–	–	–	–	–
CC(=O)/N=c1/sc(S(N)(=O)=O)nn1C [methazolamide]	-2.3 ± 2.4 kg	−1.8 (−9.8, +1.3) kg	–	–	90.7 ± 14.0 kg	95.3 (63.3, 106.0) kg	−0.77 ± 0.79 kg/m^2	−0.6 (−3.1, +0.5) kg/m^2	31.5 ± 5.1 kg/m^2	32.0 (24.7-39.0) kg/m^2	−0.26 ± 0.72%	−0.3 (−2.1, +0.8) %	6.88 ± 0.63%	7.0 (6.1, 8.0) %	no differences were observed; also recorded: No such additional effect	+0.8 kg	2.2 kg	2%	+0.4 kg/m^2	−0.1%
